Measurements published in patent US11390604B2 (Hoffmann-La Roche Inc., priority 2019, dated 2022).

Test system: Acinetobacter baumannii ATCC 17961
Test: Antimicrobial susceptibility testing: 90% growth inhibitory concentration (IC90) determination
Assay type: cell-based
Settings: ATCC17961, Acinetobacter baumannii ATCC 17961, Iso-Sensitest broth, read-out: ATCC 17961 IC90
Procedure, shortened: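 Broth microdilution in Iso-Sensitest medium, twofold series (e.g. 50 to 0.097 μM final), ~5×10^5 CFU/ml inoculum, 35±2 °C. OD600 read every 20 min over 16 h. IC90 derived from growth inhibition during logarithmic phase.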

Q: For `Cn1c(-c2cn(CC#N)nc2C(F)(F)F)cnc1C(=O)Nc1ccc(C(=O)N2CCN(C(=O)N[C@H]3CCNC3)CC2)c(Cl)c1` [Example 143, 4-[2-chloro-4-[[5-[1-(cyanomethyl)-3-(trifluoromethyl)pyrazol-4-yl]-1-methylimidazole-2-carbonyl]amino]benzoyl]-N-[(3S)-pyrrolidin-3-yl]piperazine-1-carboxamide;formic acid], which IC90 is on record?
A: Its IC90 is 426 nM.

Q: Which IC90 does the source give for `Cn1c(-c2cn(CCF)nc2C(F)(F)F)cnc1C(=O)Nc1ccc(C(=O)N2CCN(C(=O)NC3CNC3)CC2)c(Cl)c1` [Example 144, N-(azetidin-3-yl)-4-[2-chloro-4-[[5-[1-(2-fluoroethyl)-3-(trifluoromethyl)pyrazol-4-yl]-1-methylimidazole-2-carbonyl]amino]benzoyl]piperazine-1-carboxamide;formic acid] here?
A: The IC90 was 621 nM.

Q: For `Cn1c(-c2cn(CCF)nc2C(F)(F)F)cnc1C(=O)Nc1ccc(C(=O)N2CCN(C3=NC(CN)CO3)CC2)c(Cl)c1` (centres unmarked) [Example 145, N-[4-[4-[4-(aminomethyl)-4,5-dihydro-1,3-oxazol-2-yl]piperazine-1-carbonyl]-3-chlorophenyl]-5-[1-(2-fluoroethyl)-3-(trifluoromethyl)pyrazol-4-yl]-1-methylimidazole-2-carboxamide;formic acid], which IC90 is on record?
A: The IC90 was 928 nM.

Q: With `Cn1c(-c2cn(CC(F)F)nc2C(F)(F)F)cnc1C(=O)Nc1ccc(C(=O)N2CCN(C(=O)NC3CNC3)CC2)c(Cl)c1` [Example 146, N-(azetidin-3-yl)-4-[2-chloro-4-[[5-[1-(2,2-difluoroethyl)-3-(trifluoromethyl)pyrazol-4-yl]-1-methylimidazole-2-carbonyl]amino]benzoyl]piperazine-1-carboxamide;formic acid] as the molecule, how does the IC90 read?
A: Its IC90 is 434 nM.

Q: With `C=CCn1cc(-c2cnc(C(=O)Nc3ccc(C(=O)N4CCN(C(=O)NC5CNC5)CC4)c(Cl)c3)n2C)c(C(F)(F)F)n1` [Example 147, N-(azetidin-3-yl)-4-[2-chloro-4-[[1-methyl-5-[1-prop-2-enyl-3-(trifluoromethyl)pyrazol-4-yl]imidazole-2-carbonyl]amino]benzoyl]piperazine-1-carboxamide] as the molecule, how does the IC90 read?
A: The IC90 was 289 nM.

Q: For `Cn1c(-c2cn(CC(F)(F)F)nc2C(F)(F)F)cnc1C(=O)Nc1ccc(C(=O)N2CCN(C3=NC(CN)CO3)CC2)c(Cl)c1` (centres unmarked) [Example 148, N-[4-[4-[4-(aminomethyl)-4,5-dihydro-1,3-oxazol-2-yl]piperazine-1-carbonyl]-3-chlorophenyl]-1-methyl-5-[1-(2,2,2-trifluoroethyl)-3-(trifluoromethyl)pyrazol-4-yl]imidazole-2-carboxamide], which IC90 is on record?
A: Its IC90 is 524 nM.

Q: Which IC90 does the source give for `Cn1c(-c2cn(CC(F)(F)F)nc2C(F)(F)F)cnc1C(=O)Nc1ccc(C(=O)N2CCN(C(=O)NC3CNC3)CC2)c(Cl)c1` [Example 149, N-(azetidin-3-yl)-4-[2-chloro-4-[[1-methyl-5-[1-(2,2,2-trifluoroethyl)-3-(trifluoromethyl)pyrazol-4-yl]imidazole-2-carbonyl]amino]benzoyl]piperazine-1-carboxamide] here?
A: The IC90 was 550 nM.

Q: With `Cn1c(-c2cn(C3CCC3)nc2C(F)(F)F)cnc1C(=O)Nc1ccc(C(=O)N2CCN(C(=O)NC3CNC3)CC2)c(Cl)c1` [Example 150, N-(azetidin-3-yl)-4-[2-chloro-4-[[5-[1-cyclobutyl-3-(trifluoromethyl)pyrazol-4-yl]-1-methylimidazole-2-carbonyl]amino]benzoyl]piperazine-1-carboxamide] as the molecule, how does the IC90 read?
A: Its IC90 is 324 nM.

Q: For `Cn1c(-c2cn(CC#N)nc2C(F)(F)F)cnc1C(=O)Nc1ccc(C(=O)N2CCN(C(=O)NC3CNC3)CC2)c(Cl)c1` [Example 151], which IC90 is on record?
A: Its IC90 is 475 nM.

Q: For `CCc1cc(NC(=O)c2ncc(-c3cn(CC(F)F)nc3C(F)(F)F)n2C)ccc1C(=O)N1CCN(C(=O)C2CCN(C)CC2)CC1` [Example 152, 5-[1-(2,2-difluoroethyl)-3-(trifluoromethyl)pyrazol-4-yl]-N-[3-ethyl-4-[4-(1-methylpiperidine-4-carbonyl)piperazine-1-carbonyl]phenyl]-1-methylimidazole-2-carboxamide], which IC90 is on record?
A: The IC90 was 1170 nM.

Q: `CCc1cc(NC(=O)c2ncc(-c3cn(CC(F)F)nc3C(F)(F)F)n2C)ccc1C(=O)N1CCN(C(=O)C2CNC2)CC1` [Example 153, N-[4-[4-(azetidine-3-carbonyl)piperazine-1-carbonyl]-3-ethylphenyl]-5-[1-(2,2-difluoroethyl)-3-(trifluoromethyl)pyrazol-4-yl]-1-methylimidazole-2-carboxamide;formic acid] was tested. Which IC90 did it give?
A: The IC90 was 1000 nM.

Q: With `CCc1cc(NC(=O)c2ncc(-c3cn(CC(F)F)nc3C(F)(F)F)n2C)ccc1C(=O)N1CCN(C(=O)C2CCNCC2)CC1` [Example 154, 5-[1-(2,2-difluoroethyl)-3-(trifluoromethyl)pyrazol-4-yl]-N-[3-ethyl-4-[4-(piperidine-4-carbonyl)piperazine-1-carbonyl]phenyl]-1-methylimidazole-2-carboxamide;formic acid] as the molecule, how does the IC90 read?
A: The IC90 was 955 nM.

Q: How did the IC90 turn out when `CCc1cc(NC(=O)c2ncc(-c3cn(CC(F)F)nc3C(F)(F)F)n2C)ccc1C(=O)N1CCN(C(=O)C2(O)CCNCC2)CC1` [Example 155, 5-[1-(2,2-difluoroethyl)-3-(trifluoromethyl)pyrazol-4-yl]-N-[3-ethyl-4-[4-(4-hydroxypiperidine-4-carbonyl)piperazine-1-carbonyl]phenyl]-1-methylimidazole-2-carboxamide;formic acid] was run?
A: The IC90 was 1140 nM.

Q: How did the IC90 turn out when `CCc1cc(NC(=O)c2ncc(-c3cn(CC(F)F)nc3C(F)(F)F)n2C)ccc1C(=O)N1CCN(C(=O)[C@@H]2CCNC2)CC1` [Example 156, 5-[1-(2,2-difluoroethyl)-3-(trifluoromethyl)pyrazol-4-yl]-N-[3-ethyl-4-[4-[(3R)-pyrrolidine-3-carbonyl]piperazine-1-carbonyl]phenyl]-1-methylimidazole-2-carboxamide;formic acid] was run?
A: The IC90 was 758 nM.

Q: `CCc1cc(NC(=O)c2ncc(-c3cn(CC(F)F)nc3C(F)(F)F)n2C)ccc1C(=O)N1CCN(C(=O)NCC2(O)CNC2)CC1` [Example 157, 4-[4-[[5-[1-(2,2-difluoroethyl)-3-(trifluoromethyl)pyrazol-4-yl]-1-methylimidazole-2-carbonyl]amino]-2-ethylbenzoyl]-N-[(3-hydroxyazetidin-3-yl)methyl]piperazine-1-carboxamide;formic acid] was tested. Which IC90 did it give?
A: The IC90 was 1000 nM.

Q: For `CCc1cc(NC(=O)c2ncc(-c3cn(Cc4cccnc4)nc3C(F)(F)F)n2C)ccc1C(=O)N1CCN(C(=O)C2CCN(C)CC2)CC1` [Example 158, N-[3-ethyl-4-[4-(1-methylpiperidine-4-carbonyl)piperazine-1-carbonyl]phenyl]-1-methyl-5-[1-(pyridin-3-ylmethyl)-3-(trifluoromethyl)pyrazol-4-yl]imidazole-2-carboxamide;formic acid], which IC90 is on record?
A: Its IC90 is 1200 nM.

Q: With `CCc1cc(NC(=O)c2ncc(-c3cn(Cc4cccnc4)nc3C(F)(F)F)n2C)ccc1C(=O)N1CCN(C(=O)C2CCNCC2)CC1` [Example 159, N-[3-ethyl-4-[4-(piperidine-4-carbonyl)piperazine-1-carbonyl]phenyl]-1-methyl-5-[1-(pyridin-3-ylmethyl)-3-(trifluoromethyl)pyrazol-4-yl]imidazole-2-carboxamide;formic acid] as the molecule, how does the IC90 read?
A: The IC90 was 1160 nM.
